# Laboratory results taken from patent US9006451B1, “2-anilinonicotinyl based chalcones useful as potential anticancer agents and process for preparation thereof” (Council of Scientific and Industrial Research, priority 2013, dated 2015).
# Columns and labels:
# K-562 = assay: NCI 60 human tumor cell line screen (SRB): K-562; type: cell-based; details: K562, K-562, Leukemia, 48 hours, read-out: GI50 values (μM conc.)
# Method: The in vitro anticancer activity studies for these chalcone analogues were carried out at the National Cancer Institute, USA.
# The chalcone compounds have been tested at NCI, USA, against sixty human tumor cell lines derived from nine cancer types (leukemia, non-small cell lung cancer, colon cancer, CNS cancer, melanoma cancer, ovarian cancer, renal cancer, prostate cancer and breast cancer). For these compounds results are expressed as growth inhibition (GI50) values as per NCI protocol.
# We describe here the development and implementation of a pilot-scale, in vitro, anticancer drug screen utilizing a panel of 60 human tumor cell lines organized into subpanels representing leukemia, melanoma, and cancers of the lung, colon, kidney, ovary, and central nervous system. The ultimate goal of this disease-oriented screen is to facilitate the discovery of new compounds with potential cell line-specific and/or subpanel-specific antitumor activity. In the current screening protocol, each cell line is inoculated onto microtiter plates, then preincubated for 28 hours. Subsequently, test agents are added in five 10-fold dilutions and the culture is incubated for an additional 48 hours. […] The SRB binds to the basic amino acids of cellular macromolecules; the solubilized stain is measured spectrophotometrically to determine relative cell growth or viability in treated and untreated cells.
smiles,measurement,setting,value
"COc1cc(C(=O)/C=C/c2cccnc2Nc2ccccc2)cc(OC)c1OC [6a, (E)-3-(2-(Phenylamino)pyridin-3-yl)-1-(3,4,5-trimethoxyphenyl)prop-2-en-1-one]",melting point,,125 to 128 °C
"COc1ccc(Nc2ncccc2/C=C/C(=O)c2cc(OC)c(OC)c(OC)c2)cc1 [6h, (E)-3-(2-(4-Methoxyphenylamino)pyridin-3-yl)-1-(3,4,5-trimethoxyphenyl)prop-2-en-1-one]",GI50,K-562,0.78 µM
